These results are taken from patent US12358907B2, “Substituted pyrrolidine amides III” (GRÜNENTHAL GMBH, priority 2019, dated 2025).

Where two headings read alike, the source gives them in different places.

Assay [1] concerns the target human glucocorticoid receptor (Homo sapiens (Human), UniProt P04150). Put plainly: Human glucocorticoid receptor (hGR) ligand-binding assay (3H-dexamethasone competition, IM9 cytosol). The conditions noted are these: read-out: % inhibition hGR at 1 μM. On the procedure: Preferably, the glucocortitcoid receptor extracted from cytosol of IM9 cells is used for competitive radioligand binding assays to calculate percentage inhibition of the binding of radiolabeled ligand 3H-dexamethasone at the human glucocorticoid receptor.
The human lymphoblast cell line IM9 (ATCC, Bethesda, MD) was cultivated in RPMI 1640 media containing 10% fetal bovine serum, penicillin (100 U/ml), streptomycin (100 μg/ml), and 2 mM L-glutamine at 37° and 7% CO2 in a humidified incubator. Cells were centrifuged for 10 minutes at 1500 g and were washed in PBS and repelleted. Cell were then resuspended in homogenization buffer consisting of: 10 mM TES, 10 mM sodium molybdate, 1 mM EDTA, pH 7.4, 20 mM 2-mercaptoethanol, and 10% glycerol. Disruption of the cells was performed by nitrogen cavitation using 2×15 minutes at 600 to 750 psi nitrogen in a N2 cavitator at 0° C. The cell preparation was then centrifuged at 27,000 g for 15 minutes, and the resultant supernatant (=cytosol of IM9 cells) was centrifuged at 103,000 g for 60 minutes at 4° C. The amount of protein in the supernatant fraction was determined using a BCA assay kit and aliquots were snap frozen in a dry ice-acetone bath and stored at −70° C. Competitive binding assays were done in duplicate in homogenization buffer with a total volume of 200 μl. To this end, 1 mg of IM9 cytosol, 0.05 μCi (1.5 nM) of 3H-dexamethasone and unlabeled Example compounds as competitor compounds at 1 μM were mixed. The reaction was stopped after incubation at 0° C. for 16 to 18 hours by the addition of 100 μl of a charcoal-dextran mixture (2% activated charcoal, 0.5% dextran in 10 mM Tris, 1 mM EDTA, pH 7.4). Another incubation step at 0° C. for 10 minutes followed before the samples were centrifuged for 5 minutes at 8200 g. 100 μl of the supernatant) was finally assayed for radioactivity by liquid scintillationspectrometry, and percentage inhibition of 3H-dexamethasone binding was calculated.

The target of assay [2] is glucocorticoid receptor (GAL4 DBD-GR) (Homo sapiens (Human), UniProt P04150). Put plainly: GR cell-based assays (GRE agonist / GRE antagonist), CHO-Gal4/GR luciferase reporter. The essentials:
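CHO cells stably carrying GAL4 DBD-GR ligand-binding-domain fusion and a GAL4-UAS firefly luciferase reporter were treated in Opti-MEM with 8 half-log concentrations from 10 μM to 0.003 μM (0.5% DMSO, quadruplicates). Antagonist mode measured repression of beclomethasone-induced signal. Luminescence after lysis gave EC50 or IC50.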
Background: A reporter such as luciferase makes a cellular process visible.

glucocorticoid receptor (GAL4 DBD-GR), sequence (P04150 524-758): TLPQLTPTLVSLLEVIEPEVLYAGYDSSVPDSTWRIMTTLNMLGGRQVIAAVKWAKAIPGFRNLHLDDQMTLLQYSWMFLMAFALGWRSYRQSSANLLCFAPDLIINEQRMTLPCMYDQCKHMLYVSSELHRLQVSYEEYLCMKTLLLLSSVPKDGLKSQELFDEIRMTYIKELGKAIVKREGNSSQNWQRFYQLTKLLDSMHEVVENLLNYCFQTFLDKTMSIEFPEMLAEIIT
human glucocorticoid receptor, sequence (P04150 whole entry): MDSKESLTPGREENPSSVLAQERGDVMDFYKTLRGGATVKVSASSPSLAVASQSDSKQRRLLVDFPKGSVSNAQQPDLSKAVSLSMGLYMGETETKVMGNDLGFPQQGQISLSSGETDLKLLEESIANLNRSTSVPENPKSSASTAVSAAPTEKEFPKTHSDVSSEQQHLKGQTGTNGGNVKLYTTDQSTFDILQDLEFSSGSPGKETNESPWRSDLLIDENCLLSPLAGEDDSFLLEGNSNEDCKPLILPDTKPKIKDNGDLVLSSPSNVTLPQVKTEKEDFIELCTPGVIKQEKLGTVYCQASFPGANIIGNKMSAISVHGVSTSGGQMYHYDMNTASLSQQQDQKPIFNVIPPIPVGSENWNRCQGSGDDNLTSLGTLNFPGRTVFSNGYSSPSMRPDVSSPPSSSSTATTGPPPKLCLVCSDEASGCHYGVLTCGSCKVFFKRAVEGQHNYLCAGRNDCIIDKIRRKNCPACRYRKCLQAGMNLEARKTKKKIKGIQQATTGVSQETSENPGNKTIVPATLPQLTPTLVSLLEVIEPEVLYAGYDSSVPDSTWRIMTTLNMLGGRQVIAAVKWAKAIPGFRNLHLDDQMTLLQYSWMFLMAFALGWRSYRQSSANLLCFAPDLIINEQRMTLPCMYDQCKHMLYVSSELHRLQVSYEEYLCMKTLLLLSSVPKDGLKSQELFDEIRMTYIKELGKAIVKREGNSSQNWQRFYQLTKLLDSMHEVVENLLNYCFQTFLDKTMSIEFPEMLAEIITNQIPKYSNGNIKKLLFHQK

For `O=C(N[C@@H]1[C@@H](c2ccccc2)N(c2ccc3c(ccn3-c3ccc(F)cc3)c2)C(=O)C12CC2)C1CC1` (racemic) [Example 5, N-trans-(5-(1-(4-fluorophenyl)-1H-indol-5-yl)-4-oxo-6-phenyl-5-azaspiro[2.4]heptan-7-yl)cyclopropanecarboxamide], in assay [1], the inhibition at 1 µM worked out at 95%. In assay [2] (read-out: IC50 or EC50), the IC50 was in the range of 0.1 to 1 µM.
In the case of `CC(F)(F)C(=O)N[C@H]1[C@H](c2ccccc2)N(c2ccc3c(cnn3-c3ccc(F)cc3)c2)C(=O)C1(C)C` [Example 4, 2,2-Difluoro-N-[(2S,3R)-1-[1-(4-fluorophenyl)-1H-indazol-5-yl]-4,4-dimethyl-5-oxo-2-phenyl-pyrrolidin-3-yl]-propionamide], the inhibition at 1 µM in assay [1] was found to be 95%. In addition, the half-inhibitory concentration (IC50) in assay [2] (read-out: IC50 or EC50) fell in the range of 0.1 to 1 µM.
The like results for `Cc1cnc(C(=O)N[C@@H]2[C@@H](c3ccccc3)N(c3ccc4c(cnn4-c4ccc(=O)n(C)c4)c3)C(=O)C2(C)C)s1` [Example 6, N-[(2R,3S)-4,4-Dimethyl-1-[1-(1-methyl-6-oxo-1H-pyridin-3-yl)-1H-indazol-5-yl]-5-oxo-2-phenyl-pyrrolidin-3-yl]-5-methyl-thiazole-2-carboxylic acid amide] were, in that order, 97% and 0.1 to 1 µM.
The like results for `O=C(N[C@@H]1[C@@H](c2ccccc2)N(c2ccc3c(cnn3-c3ccc(F)cc3)c2)C(=O)C12CC2)C1CC1` (racemic) [Example 3, N-[rac-(6R,7S)-5-[1-(4-Fluorophenyl)-1H-indazol-5-yl]-4-oxo-6-phenyl-5-azaspiro[2.4]heptan-7-yl]-cyclopropanecarboxylic acid amide] were, in that order, 98% and less than 0.1 µM.
The like results for `CC1(C)C(=O)N(c2ccc3c(cnn3-c3ccc(F)cc3)c2)[C@@H](c2ccccc2)[C@@H]1NC(=O)C1CC1` [Example 2, N-[(2S,3R)-1-[1-(4-Fluorophenyl)-1H-indazol-5-yl]-4,4-dimethyl-5-oxo-2-phenyl-pyrrolidin-3-yl]-cyclopropanecarboxylic acid amide] were, in that order, 91% and 0.1 to 1 µM.
For `Cc1cc(C(=O)N[C@@H]2[C@@H](c3ccccc3)N(c3ccc4c(cnn4-c4ccc(=O)n(C)c4)c3)C(=O)C2(C)C)no1` [Example 7, N-((2R,3S)-4,4-dimethyl-1-(1-(1-methyl-6-oxo-1,6-dihydropyridin-3-yl)-1H-indazol-5-yl)-5-oxo-2-phenylpyrrolidin-3-yl)-5-methylisoxazole-3-carboxamide], in assay [1], the inhibition at 1 µM was determined as 96%. Moreover, the IC50 in assay [2] (read-out: IC50 or EC50) was 1 to 15 µM.
As for `Cn1ccc(C(=O)N[C@@H]2[C@@H](c3ccccc3)N(c3ccc4c(cnn4-c4ccc(=O)n(C)c4)c3)C(=O)C2(C)C)n1` [Example 12, N-[(2R,3S)-4,4-Dimethyl-1-[1-(1-methyl-6-oxo-1H-pyridin-3-yl)-1H-indazol-5-yl]-5-oxo-2-phenyl-pyrrolidin-3-yl]-1-methyl-1H-pyrazole-3-carboxylic acid amide], the inhibition at 1 µM in assay [1] turned out to be 83%.
For `CC1(C)C(=O)N(c2ccc3c(cnn3-c3ccc(F)cc3)c2)[C@H](c2ccccc2)[C@H]1NC(=O)C1CC1` [Example 1, N-[(2R,3S)-1-[1-(4-Fluorophenyl)-1H-indazol-5-yl]-4,4-dimethyl-5-oxo-2-phenyl-pyrrolidin-3-yl]-cyclopropanecarboxylic acid amide], in assay [1], the inhibition at 1 µM is 99%. The molecule further returned an IC50 in assay [2] (CHO-Gal4/GR reporter cells, agonist mode (EC50) or antagonist mode against beclometasone (IC50), 6 hour incubation) of less than 0.1 µM.
Take `Cn1cc(-n2ncc3cc(N4C(=O)C(C)(C)[C@H](NC(=O)c5cncs5)[C@H]4c4ccccc4)ccc32)ccc1=O` [Example 15, N-[(2R,3S)-4,4-Dimethyl-1-[1-(1-methyl-6-oxo-1H-pyridin-3-yl)-1H-indazol-5-yl]-5-oxo-2-phenyl-pyrrolidin-3-yl]-thiazole-5-carboxylic acid amide]: the inhibition at 1 µM in assay [1] stood at 87%.
Still for that read-out and setting: the value for `Cn1cc(-n2ncc3cc(N4C(=O)C(C)(C)[C@@H](NC(=O)C(C)(F)F)[C@@H]4c4ccccc4)ccc32)ccc1=O` [Example 8, N-[(2S,3R)-4,4-Dimethyl-1-[1-(1-methyl-6-oxo-1H-pyridin-3-yl)-1H-indazol-5-yl]-5-oxo-2-phenyl-pyrrolidin-3-yl]-2,2-difluoro-propionamide] was 12%.

One may read the inhibition as how much of the control response was suppressed. A word on the IC50: it is the midpoint of a concentration-inhibition curve.
